# Data published in patent US20220380341A1, “INHIBITORS OF HIV-1 NEF FOR THE TREATMENT OF HIV DISEASE” (priority 2018, published 2022).
# Like-named read-outs stand apart in the source and are kept apart here.
# Experiments:
# [1] = biological target: Nef from SIV (strain mac239) (Simian immunodeficiency virus, UniProt Q5QGG3); assay: biochemical
# Method: Also shown are SPR data recorded on a Reichert 4-channel SPR instrument. […] Recombinant Nef is immobilized on the biosensor surface, and each compound is injected and association/dissociation kinetics are recorded. The resulting data for the 3 isoforms are each best-fit using both a two-site model and a two-step, induced-fit model. Dissociation constants (KD), calculated from the kinetic association and dissociation constants from all three isoforms, are shown in columns 6-7. Data were fit using three regimes and the resulting KD: from each model are shown in the Table: 1:1 Langmuir fit; 2-site fit, which yields low and high affinity components; and a 2-step induced fit model.
# [2] = biological target: T1, HIV-1 Nef SF2 (Human immunodeficiency virus type 1 group M subtype B, UniProt P03407); assay: biochemical; type: binding; conditions: two-step induced-fit model, Reichert SPR, read-out: Reichert SPR Nef SF2 (M) two-step fitting
# T1 construct: made in house
# [3] = biological target: HIV-1 NefNL4-3 (Human immunodeficiency virus type 1 group M subtype B, UniProt P03406, A33V/T15A/T51N/V11I); assay: Surface plasmon resonance binding to recombinant full-length Nef (NL4-3); conditions: for T, minutes (residence time): 2-step induced fit, T = 1/koff2; for RU30/RUNef (extent of binding): response units at 30 μM relative to Nef immobilized on the SPR chip
# [4] = test system: HIV-1NL4-3; assay: HIV-1 infectivity assay in TZM-bl reporter cell line (LTR-luciferase, 48 h); type: cell-based; conditions: Human immunodeficiency virus 1, TZM-bl
# Procedure, shortened: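 Luciferase read-out 48 h post-infection; compound at 1 μM during HIV-1NL4-3 infection of TZM-bl cells. Percent inhibition scaled to DMSO wild-type virus (0%) and DMSO Nef-defective virus (100% of Nef-dependent effect). Viability checked separately in uninfected cells by Cell Titer Blue.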
# [5] = test system: TZM-bl cell line; type: cell-based; conditions: human, 1 μM
# Procedure, shortened: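 Read-out is luciferase from an integrated HIV-1 LTR reporter in TZM-bl cells, 48 h after HIV-1NL4-3 infection in the presence of 1 μM compound. Scale set by DMSO-treated wild-type-infected cells (0%) and Nef-defective virus (100% Nef-dependent effect). Cell Titer Blue measures cytotoxicity without virus.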
# [6] = test system: HIV-1 NL4-3; assay: HIV-1 replication in normal donor PBMCs (p24 Gag AlphaLISA); type: cell-based; conditions: Table 1, 4 days; for IC50: Human immunodeficiency virus 1, NL43, PBMC, 96 h
# Method: FIG. 4. Inhibition of HIV-1 replication by compounds disclosed herein in PBMCs. Donor PBMCs were infected with HIV-1 in the presence of inhibitor concentrations ranging from 1 to 1,000 nM or the DMSO carrier solvent as a negative control (0.1% DMSO final). Replication was assessed by p24 Gag AlphaLISA (Perkin Elmer) […]. Each donor was also infected with Nef-defective HIV-1 to establish the baseline for Nef-dependent enhancement of replication in each culture. Cytotoxicity was assessed in uninfected PBMCs over the same incubation period using the CellTiter-Blue assay (Promega). Data were fit by non-linear regression analysis (GraphPad Prism v.7.04) to determine the IC50 and CC50 values shown.
# The tables also show data for HIV-1 Replication in normal donor peripheral blood mononuclear cells (PBMCs), which is assay is conducted as follows:
# Non-HLA-typed buffy coats (Source: Pittsburgh Central Blood Bank, #E3755) are received and processed within 24 hours of blood donation. PBMCs are isolated via rocking for RBC separation following 1:1 dilution with PBS, followed by Ficoll gradient centrifugation. The lymphocyte fraction is removed and washed several times for a final concentration of ˜150-300×10^6 cells per donor. Cells are activated for 3 days with 1-5 μg/mL PHA (Sigma) and 50 U/mL IL-2. Cells are plated at 750,000 cells/ml and viability is checked at day 3 using the Cell Titer Blue assay (Promega). If cells are >90% viable, then they are infected with HIV-1 NL4-3, wild-type or Δ-Nef mutant (input typically 30-500 pg/mL p24 capsid equivalents) in the presence or absence of Nef inhibitor analogs. IL-2 is included in the media at the time of infection. After 4 days, cells are lysed with 1% Triton X-100 for 1.5 h, checked for viability via Cell Titer Blue, and frozen/stored at −20° C. HIV-1 replication is assessed with a high-sensitivity HIV-1 p24 AlphaLISA assay (Perkin Elmer) in ½-volume 96-well plates, using one-half of the recommended assay volumes for all reagents (including samples). Assays are read on the BioTek Cytation5 instrument; readout is in AlphaUnits and replication in p24 pg/mL is determined using an HIV-1 p24 capsid protein standard included in the Alpha kit.
# [7] = KD, M, Table 4, SPR fit 2-step induced fit, KD = koff/kon × koff2/(koff2 + kon2)
# [8] = Nef NL4-3 Binding, SPR 2-state fitting KD, Table 1, 2-step induced-fit model
# [9] = Reichert SPR Nef NL43 (M) two-step fitting, KD, two-step induced-fit model, Reichert SPR, Table 3
# [10] = read-out: Nef NL4-3 Binding, SPR 1:1 or 2-site fitting KD2, Table 1, 2-site fit, second component
# [11] = 1.0 μM, TZM-bl reporter cell line, Table 4, read-out: % Infectivity Inhibition
# [12] = 1 μM, TZM-bl, normalized: DMSO wild-type HIV-1 = 0%, Nef-defective HIV-1 = 100%, read-out: HIV-1 Infectivity % Inhibition norm. to Δ-Nef @ 1 μM
# [13] = 48 h, Table 1, TZM-bl cells, 1 μM, 48 h, 100% = Nef-defective HIV-1, read-out: HIV-1 Infectivity % Inhibition Norm. to Δ-Nef @ 1 μM
# [14] = words (Not active, Borderline) where no bound is given
SMILES,Kd [1] [nM],Kd [2] [M],Kd [3] [M],"Kd [3, 7] [M]","Kd [3, 8] [M]","Kd [3, 9] [M]","T, minutes (residence time) ([3]; Table 4)","Kd [3, 10] [M]",RU30/RUNef (extent of binding) [3],"inhibition at 1 µM [4, 11] [%]","inhibition at 1 µM [4, 12] [%]","inhibition at 1 µM [4, 13] [%]",% Cell Viability [5] [%],Percent Viability @ 1 μM (TZM-bl cells) [5] [%],"HIV Replication PBMC IC50 vs. HIV NL4-3 [6, 14]","IC50 [6, 14] [nM]",IC50 [6] [nM],"Kd ([3]; Nef NL4-3 Binding, SPR 1:1 or 2-site fitting KD2, Table 1, 2-site fit, second component) [M]"
"Oc1c(CC2CCOCC2)c(-c2ccc(F)cc2)nn1-c1nc2ccccc2[nH]1 [Compound I-151, 1-(1H-1,3-benzodiazol-2-yl)-3-(4-fluorophenyl)-4-[(oxan-4-yl)methyl]-1H-pyrazol-5-ol]",1460,3.5e-06,5.34e-07,6.26e-06,5.65e-06,5.65e-06,4.68E + 00 minutes,4.65e-05,8.50E- 03,100,106,106,83.0,83.0,,,,
"Oc1c(CCc2ccc(F)cc2)c(C2CC2)nn1-c1nc2cc(Cl)ccc2[nH]1 [Compound I-170, 1-(5-chloro-1H-1,3-benzodiazol-2-yl)-3-cyclopropyl-4-[2-(4-fluorophenyl)ethyl]-1H-pyrazol-5-ol]",2.87,4.9e-07,,1.25e-08,1.25e-08,1.25e-08,8.01E + 02 minutes,1.99e-06,2.34E- 02,67.1,67.1,67.1,98.8,98.8,,,,
"CC(C)(C)OC(=O)N1CCC(c2nn(-c3nc4ccccc4[nH]3)c(O)c2CCc2ccc(F)cc2)CC1 [Compound I-202, tert-butyl 4-[1-(1H-1,3-benzodiazol-2-yl)-4-[2-(4-fluorophenyl)ethyl]-5-hydroxy-1H-pyrazol-3-yl]piperidine-1-carboxylate]",,,,6.05e-12,2.22e-06,,6.36E + 06 minutes,,4.09E- 03,100,,105,79.2,79.2,Not active,,,
CC(C)(C)OC(=O)N1CCC(CCc2c(-c3ccc(C(F)(F)F)cc3)nn(-c3nc4ccccc4[nH]3)c2O)CC1 [Compound I-204],,,,2.29e-11,2.29e-11,,,6.35e-11,,5.8,,5.8,95.1,95.1,,≤ 1000,,
"CC(C)(C)OC(=O)N1CCCCC1Cc1nn(-c2nc3ccccc3[nH]2)c(O)c1CCc1ccc(F)cc1 (stereo not drawn) [Compound I-207, tert-butyl 2-{[1-(1H-1,3-benzodiazol-2-yl)-4-[2-(4-fluorophenyl)ethyl]-5-hydroxy-1H-pyrazol-3-yl]methyl}piperidine-1-carboxylate]",,,1.49e-09,,,,,8.09e-07,4.14E- 03,0,,-9.4,99.3,99.3,,,≥ 1000,
"CC(C)(C)OC(=O)N1CCC(CCc2c(-c3cccc(S(C)(=O)=O)c3)nn(-c3nc4ccccc4[nH]3)c2O)CC1 [Compound I-210, tert-butyl 4-{2-[1-(1H-1,3-benzodiazol-2-yl)-5-hydroxy-3-(3-methanesulfonylphenyl)-1H-pyrazol-4-yl]ethyl}piperidine-1-carboxylate]",709,4.31e-06,8.86e-07,4.56e-06,4.56e-06,4.56e-06,1.06E + 01 minutes,8.12e-06,5.18E- 03,95.4,95.4,95.4,83.7,83.7,,,,
"CC(C)(C)OC(=O)N1CCC(c2nn(-c3nc4ccc(Cl)cc4[nH]3)c(O)c2CCc2ccc(F)cc2)CC1 [Compound I-216, tert-butyl 4-[1-(5-chloro-1H-1,3-benzodiazol-2-yl)-4-[2-(4-fluorophenyl)ethyl]-5-hydroxy-1H-pyrazol-3-yl]piperidine-1-carboxylate]",,,1.24e-07,8.71e-12,8.71e-12,,4.71E + 05 minutes,8.29e-07,1.60E- 02,100,,176,87.1,87.1,Not active,,,
"Oc1c(CCc2ccc(F)cc2)c(C2CC2)nn1-c1nc2cccnc2[nH]1 [Compound I-308, 3-cyclopropyl-4-[2-(4-fluorophenyl)ethyl]-1-{3H-imidazo[4,5-b]pyridin-2-yl}-1H-pyrazol-5-ol]",3850,2.91e-06,9.41e-07,4.06e-06,4.06e-06,4.06e-06,5.81E + 00 minutes,,6.06E- 03,61.4,61.4,61.4,100,100.1,,,,2.21e-06
"CC(C)(O)C(=O)N1CCC(CCc2c(C3CC3)nn(-c3nc4cc(Cl)ccc4[nH]3)c2O)CC1 [Compound I-712, 1-(4-{2-[1-(5-chloro-1H-1,3-benzodiazol-2-yl)-3-cyclopropyl-5-hydroxy-1H-pyrazol-4-yl]ethyl}piperidin-1-yl)-2-hydroxy-2-methylpropan-1-one]",2.19,5.9e-09,6.85e-08,1.99e-08,1.99e-08,1.99e-08,7.54E + 02 minutes,1.03e-05,1.07E- 02,52.3,52.6,52.6,100,104.4,,,,
"CC(=O)N1CCC(Cc2c(-c3ccc(C(F)(F)F)cc3)nn(-c3nc4ccccc4[nH]3)c2O)CC1 [Compound I-720, 1-(4-{[1-(1H-1,3-benzodiazol-2-yl)-5-hydroxy-3-[4-(trifluoromethyl)phenyl]-1H-pyrazol-4-yl]methyl}piperidin-1-yl)ethan-1-one]",21.8,,1.19e-06,1.81e-06,1.81e-06,1.81e-06,1.32E + 00 minutes,,2.80E- 03,92.2,92.2,92.2,71.4,71.4,,,,
